Test results taken from patent EP1276895B1, “METHOD FOR THE IDENTIFICATION OF ACTIVE SITE PROTEASE INACTIVATORS” (THE UNIVERSITY OF GEORGIA RESEARCH FOUNDATION, INC., priority 2000, dated 2001).
Residues, ends and D or L forms follow the SMILES beside them. *: point of attachment. AFC = O=c1cc(C(F)(F)F)c2ccc(N*)cc2o1; Cbz = O=C(OCc1ccccc1)*; CH2F = FC*

Legend:
Taenia solium crude mix = assay: Competitor assay of vehicles against high Vmax substrate cocktails (Step III), crude mix; format: biochemical; conditions: for V Value: V = P * M
Description: Step III for a crude mix proceeds it would for a purified protease, except that Vm is used instead of kcat.
The experiment began with a competitor test between the noncleaved low Vmax substrates and the highest Vmax substrate, Z-Phe-Arg-AFC. Concentrations were varied between the low Vmax substrate and Z-Phe-Arg-AFC, as described above under "refinement of assay" until a relative inhibition profile was obtained.
Percent inhibition was calculated as: %Inhibition =; ((AFC positive for"Y"-AFC negative for"Y")-(AFC test-AFC negative for"Y")X100)/(AFC positive for "Y"-AFC negative for "Y") [formula]
One of the most intriguing findings in this experiment was that a highly similar inhibition pattern for the competitor assay was noted when the crude mix was employed as the source of the target protease. Although there were some variations in the effects of inhibitor dilution, the most highly ranked vehicles remained inhibitory consistently in comparison to the profile with the target protease. The relative profile and composition of the top tiers of vehicles was identical. Z-LLL-AFC, Z-LLY-AFC, Mu-LY-AFC, Boc-VPR-AFC, Z-SY-AFC, Z-RR-AFC, Z-FLF-AFC, Z-LGR-AFC consistently presented as the top eight vehicles (Fig. 5b), respectively, based upon their V values (Table 2). […] It was notable that the three vehicles had very similar V values. […] As was mentioned, this vehicle along with Z-LLL-AFC and Z-LLY-AFC, were consistently the most inhibitory vehicles. The V values of the most inhibitory vehicle series are shown below in Table 2. Again, a clear break between the first and second tier vehicles could be noted with the V value. Table 2. Vehicles and V value rankings.

[1] = system: purified Taenia solium cysteine protease; assay: Differential cleavage (selectivity) test, T. solium protease; format: biochemical
Description: (§1) In order to perform the assay, the vehicle (for Step VI) or inhibitor (for Step IX) were incubated with the appropriate substrate in the correct assay buffer and allowed to equilibrate. Subsequently, the protease was added, and the assay was allowed to incubate for an appropriate time. The concentrations used in this experiment were as follows: Vehicle was set up at 4 X 10^-5 M in final assay buffer; Inhibitor was set up at 3 X 10^-10 M in the final assay buffer. Accordingly, the dosages employed should be the minimal amount of vehicle or inhibitor necessary to induce inhibition. […] Substrates were set up based upon the preferred substrate for cleavage of the particular enzyme.
(§2) Positive controls were set up similarly as described for test controls, except that solvent was added in substitution for the inhibitor or vehicle (in a volume equal to the volume of inhibitor or vehicle addition). All of the inhibitors and vehicles could be dissolved in dimethylsulfoxide (DMSO), and therefore, this was the solvent of choice. Negative controls were set up by adding the inhibitor or vehicle and the preferred substrates in a tube without the protease. All potential non-proteolytic liberation of AFC was therefore controlled for in this tube (a feature which also insured stability of the AFC substrates, since these substrates will freely liberate AFC when unstable).
(§3) All controls were set up in triplicate, and experiments were repeated a minimum of five times.
(§4) Percent inhibition was calculated as: % Inhibition = ((AFC positive for ʺSIʺ-AFC negative for ʺSIʺ)-(AFC test-AFC negative for ʺSIʺ))/(AFC positive for ʺSIʺ-AFC negative for ʺSIʺ) × 100 [formula] In this preliminary test, we employed the following human-derived enzymes (with indicated mechanistic class): Cathepsin B (cysteine), Cathepsin L (cysteine), Cathepsin H (cysteine), Cathepsin D (aspartic) Trypsin (serine), the purified Taenia solium cysteine protease, and the Taenia solium crude mix. Cathepsin B was prepared in an assay buffer of 10 mM L-cysteine in 0.4 M Citrate buffer, pH 6.1, using Z-ARR-AFC as the cleavage substrate. Cathepsin L was prepared in an assay buffer of 10 mM L-cysteine in 0.4 M Citrate buffer, pH 5.5, using Z-FR-AFC as the cleavage substrate. Cathepsin H was prepared in an assay buffer of 10 mM L-cysteine in 0.15 M PBS buffer, pH 6.8, using L-R-AFC as the cleavage substrate. Cathepsin D was prepared in an assay buffer of 0.15 M PBS, pH 7.1, using Z-RGFFP-AFC as the cleavage substrate. Trypsin was prepared in an assay buffer of 0.15 M PBS, pH 8.0, supplemented with 100 mM CaCl2 and with Z-R-AFC as the cleavage substrate. Enzyme was incubated so that it was at least 50 times less than the concentration of substrate in order to insure saturating conditions.

Cathepsin B (cysteine) = Cathepsin B (cysteine) (Homo sapiens, UniProt P07858); assay: Differential cleavage (selectivity) test, Cathepsin B; format: biochemical; conditions: 0.4 M Citrate pH 6.1, 10 mM L-cysteine, substrate Z-ARR-AFC; for inhibition at 0.0003 µM: inhibitor 3 X 10^-10 M
Description: as §1, §2, §3, §4

Cathepsin D (aspartic) = Cathepsin D (aspartic) (Homo sapiens, UniProt P07339); assay: Differential cleavage (selectivity) test, Cathepsin D; format: biochemical; conditions: 0.15 M PBS pH 7.1, substrate Z-RGFFP-AFC; for inhibition at 0.0003 µM: inhibitor 3 X 10^-10 M
Description: as §1, §2, §3, §4

Taenia crassiceps cysts = assay: Short-term prophylactic protection of BALB/c mice from cysticercosis infection; format: in vivo; conditions: for % Prophylactic protection of BALB/c mice: pre-injected two days, 10 T. crassiceps cysts/mouse, dosed daily for four weeks, cysts counted after one month, versus untreated controls
T. crassiceps cysts = format: in vivo, Taenia crassiceps; conditions: for Percent protection, long-term: BALB/c mice, 5 mice/group, intraperitoneal, treated every day for 30 days post-challenge, left untreated for 5 months, reduction of total cyst number versus controls; for side effects in treated mice, long-term: in vivo
[2] = system: normal BALB/c mouse splenocytes; assay: Mouse splenocyte proliferation (3H-thymidine incorporation) with inhibitor alone or inhibitor and Con-A; format: cell-based; conditions: for proliferative response of splenocytes (3H-thymidine incorporation): inhibitor alone; for responsiveness of splenocytes to Con-A: inhibitor and Con-A; for toxicity to normal BALB/c mouse splenocytes in vitro: preliminary results

Sequence of Cathepsin D (aspartic) (P07339 65-412): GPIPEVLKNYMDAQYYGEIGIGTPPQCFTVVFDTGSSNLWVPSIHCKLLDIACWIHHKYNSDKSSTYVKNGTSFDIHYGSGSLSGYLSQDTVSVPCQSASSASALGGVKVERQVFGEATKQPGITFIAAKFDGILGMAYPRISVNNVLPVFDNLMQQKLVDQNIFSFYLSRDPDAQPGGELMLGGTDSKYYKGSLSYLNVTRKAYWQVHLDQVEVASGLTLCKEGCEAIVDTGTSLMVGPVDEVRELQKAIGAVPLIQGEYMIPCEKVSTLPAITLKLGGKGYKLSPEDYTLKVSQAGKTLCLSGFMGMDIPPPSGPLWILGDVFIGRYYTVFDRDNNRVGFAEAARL

Compound	Tier (Taenia solium crude mix)	V Value (Taenia solium crude mix)	% Inhibition ([1]; vehicle 4 X 10^-5 M) [%]	inhibition at 40 µM (Cathepsin B (cysteine); vehicle 4 X 10^-5 M) [%]	inhibition at 40 µM (Cathepsin D (aspartic); vehicle 4 X 10^-5 M) [%]	% Inhibition ([1]; inhibitor 3 X 10^-10 M) [%]	inhibition at 0.0003 µM (Cathepsin B (cysteine)) [%]	inhibition at 0.0003 µM (Cathepsin D (aspartic)) [%]	% Prophylactic protection of BALB/c mice (Taenia crassiceps cysts)	Percent protection, long-term (T. crassiceps cysts) [%]	side effects in treated mice, long-term (T. crassiceps cysts)	proliferative response of splenocytes (3H-thymidine incorporation) [2]	responsiveness of splenocytes to Con-A [2]	toxicity to normal BALB/c mouse splenocytes in vitro [2]	further results
CC(C)C[C@H](NC(=O)OCc1ccccc1)C(=O)N[C@@H](CC(C)C)C(=O)N[C@@H](CC(C)C)C(=O)Nc1ccc2c(C(F)(F)F)cc(=O)oc2c1 [Z-LLL-AFC, Z-Leu-Leu-Leu-AFC] (Cbz-Leu-Leu-Leu-{AFC})	1 (The first tier was composed of those vehicles, which produced inhibition greater than 50% when in the presence of the 1.4% cocktail)	0.611	68	0	0	–	–	–	–	–	–	–	–	–	–
CC(C)C[C@H](NC(=O)[C@H](CC(C)C)NC(=O)[C@H](CC(C)C)NC(=O)OCc1ccccc1)C(=O)CF [Z-LLL-FMK, Z-Leu-Leu-Leu-fluoromethylketone] (Cbz-Leu-Leu-Leu-CH2F)	–	–	–	–	–	98	0	0	100%	80	no side effects were noted	do not induce a proliferative response	unaffected	nontoxic	% Prophylactic protection of BALB/c mice (Taenia crassiceps cysts; listed as Leucine-Leucine-Leucine-Fluoromethylketone): 100%; responsiveness of splenocytes to Con-A ([2]; listed as LLL-FMK): do not affect the responsiveness
CC(C)C[C@H](NC(=O)OCc1ccccc1)C(=O)N[C@@H](CC(C)C)C(=O)N[C@@H](Cc1ccc(O)cc1)C(=O)Nc1ccc2c(C(F)(F)F)cc(=O)oc2c1 [Z-LLY-AFC, Z-Leu-Leu-Tyr-AFC] (Cbz-Leu-Leu-Tyr-{AFC})	1 (The first tier was composed of those vehicles, which produced inhibition greater than 50% when in the presence of the 1.4% cocktail)	0.55	70	0	0	–	–	–	–	–	–	–	–	–	–
CC(C)C[C@H](NC(=O)OCc1ccccc1)C(=O)N[C@@H](CC(C)C)C(=O)N[C@@H](Cc1ccc(O)cc1)C(=O)CF [Z-LLY-FMK, Z-Leu-Leu-Tyr-FMK] (Cbz-Leu-Leu-Tyr-CH2F)	–	–	–	–	–	62	0	0	85-97%	95	no side effects were noted	do not induce a proliferative response	unaffected	nontoxic	protection from cysticercosis infection, subsequent repeat of the prophylactic experiment (Taenia crassiceps cysts; identical prophylactic experiment repeated): 75%-90%; % Prophylactic protection of BALB/c mice (Taenia crassiceps cysts; listed as Leucine-Leucine-Tyrosine-Fluoromethylketone): 85-97%; side effects / inhibitor toxicity in treated mice, short-term (Taenia crassiceps cysts; visual inspection (coat condition, tail dragging or paresis)): no mice showed effects of inhibitor toxicity; responsiveness of splenocytes to Con-A ([2]; listed as LLY-FMK): do not affect the responsiveness
Mu-Leu-Tyr-AFC [Mu-LY-AFC]	1 (The first tier was composed of those vehicles, which produced inhibition greater than 50% when in the presence of the 1.4% cocktail)	0.45	75	–	–	–	–	–	–	–	–	–	–	–	% Inhibition (Cathepsin B (cysteine); vehicle 4 X 10^-5 M, 40 µM): 0%; % Inhibition (Cathepsin D (aspartic); vehicle 4 X 10^-5 M, 40 µM): 0%
